For experiment [1], the target named is T1, METTL14 (Homo sapiens, UniProt Q9HCE5).
T1 construct: Following treatment, total cellular proteins were extracted using RIPA buffer; endogenous in cells; host or cells: MV4-11 (MV4.11) human AML cells, ATCC
In words: Immunoblotting (Western blot) degradation of METTL14 in MV4-11 cells. As to conditions: MV4-11 cells, 24 h; for % reduction in MV4-11 cells, 0.3 µM, METTL14 / % reduction in MV4-11 cells, 1.0 µM, METTL14 / % degradation in MV4-11 cells, 0.3 µM, METTL14 / % degradation in MV4-11 cells, 1.0 µM, METTL14: immunoblotting; for % reduction in MV4-11 cells, 0.3 µM, METTL14 / % reduction in MV4-11 cells, 1.0 µM, METTL14: nd = no degradation. Format: cell-based. The procedure: (§1) All cell lines were maintained under standard conditions in a humidified atmosphere at 37 °C with 5% CO₂.
(§2) Western Blot Analysis: Following treatment, total cellular proteins were extracted using RIPA buffer (Auragene, Changsha, China). […] After washing, membranes were incubated with horseradish peroxidase (HRP)-conjugated secondary antibodies (anti-rabbit or anti-mouse IgG; 1:5000) for 2 hours at room temperature. Protein bands were visualized using an enhanced chemiluminescence (ECL) detection kit (Amersham Pharmacia), following the manufacturer's protocol. Band intensities were quantified using ImageJ software and normalized to ACTIN as a loading control. Data was analyzed using GraphPad Prism 9.

The target of experiment [2] is METTL3 (Homo sapiens, UniProt Q86U44). The experiment in a line: Immunoblotting (Western blot) degradation of METTL3 in MV4-11 cells. It counts as cell-based. Also noted: Following treatment, total cellular proteins were extracted using RIPA buffer; endogenous in cells; host or cells: MV4-11 (MV4.11) human AML cells, ATCC. As to conditions: MV4-11 cells, 24 h; for % reduction in MV4-11 cells, 0.3 µM, METTL3 / % reduction in MV4-11 cells, 1.0 µM, METTL3 / % degradation in MV4-11 cells, 0.3 µM, METTL3 / % degradation in MV4-11 cells, 1.0 µM, METTL3: immunoblotting; for % reduction in MV4-11 cells, 0.3 µM, METTL3 / % reduction in MV4-11 cells, 1.0 µM, METTL3: nd = no degradation. On the procedure: as §1, §2
Sequence of METTL3 (Q86U44 2-580 limits assumed): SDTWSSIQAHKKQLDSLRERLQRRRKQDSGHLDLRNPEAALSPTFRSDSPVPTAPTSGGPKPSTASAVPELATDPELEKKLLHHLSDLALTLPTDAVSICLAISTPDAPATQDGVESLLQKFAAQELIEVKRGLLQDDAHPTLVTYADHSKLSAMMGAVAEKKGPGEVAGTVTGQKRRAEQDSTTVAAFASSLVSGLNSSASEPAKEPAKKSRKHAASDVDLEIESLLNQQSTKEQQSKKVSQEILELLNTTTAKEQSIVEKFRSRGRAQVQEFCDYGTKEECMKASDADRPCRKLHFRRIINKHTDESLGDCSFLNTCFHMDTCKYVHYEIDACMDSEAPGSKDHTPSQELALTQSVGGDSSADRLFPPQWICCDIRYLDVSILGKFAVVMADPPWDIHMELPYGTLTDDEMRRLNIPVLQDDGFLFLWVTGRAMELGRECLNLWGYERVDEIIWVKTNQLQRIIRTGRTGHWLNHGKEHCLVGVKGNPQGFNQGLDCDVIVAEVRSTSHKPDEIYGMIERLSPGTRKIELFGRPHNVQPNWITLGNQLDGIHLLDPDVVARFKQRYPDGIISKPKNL
Sequence of METTL3 (Q9HCE5 whole entry partner): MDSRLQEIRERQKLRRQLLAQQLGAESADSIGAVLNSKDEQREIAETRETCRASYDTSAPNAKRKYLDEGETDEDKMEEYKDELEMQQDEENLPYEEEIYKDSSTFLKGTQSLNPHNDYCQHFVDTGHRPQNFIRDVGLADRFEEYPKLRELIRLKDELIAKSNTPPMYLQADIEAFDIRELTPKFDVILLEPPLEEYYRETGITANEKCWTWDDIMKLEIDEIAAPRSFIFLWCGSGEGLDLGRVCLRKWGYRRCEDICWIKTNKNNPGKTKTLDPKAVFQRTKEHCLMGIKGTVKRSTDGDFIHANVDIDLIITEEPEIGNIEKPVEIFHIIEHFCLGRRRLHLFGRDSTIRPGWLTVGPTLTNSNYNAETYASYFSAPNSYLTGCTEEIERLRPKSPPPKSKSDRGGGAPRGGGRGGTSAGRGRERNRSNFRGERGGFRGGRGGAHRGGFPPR
Background: In western blotting, separated proteins are transferred to a membrane and probed.

T1 sequence (Q9HCE5 whole entry): as the sequence (Q9HCE5 whole entry partner) above
T1 sequence (Q86U44 2-580 partner): as the sequence (Q86U44 2-580 limits assumed) above

For the compound `CC1(C)CCN(Cc2cc(F)c(N3CC(=O)NC4(CCN(c5cc(NCCCCC(=O)N6CCN(c7ccc8c(c7)C(=O)N(C7CCC(=O)NC7=O)C8=O)CC6)ncn5)CC4)C3)cc2F)CC1` (stereo not drawn) [Compound 4a, 5-(4-(5-((6-(4-(4-((4,4-dimethylpiperidin-1-yl)methyl)-2,5-difluorophenyl)-2-oxo-1,4,9-triazaspiro[5.5]undecan-9-yl)pyrimidin-4-yl)amino)pentanoyl)piperazin-1-yl)-2-(2,6-dioxopiperidin-3-yl)isoindoline-1,3-dione], in experiment [1], the “% reduction in MV4-11 cells, 0.3 µM, METTL14” value (“% reduction … 0.3 µM, METTL14” below) was 6% and the “% reduction in MV4-11 cells, 1.0 µM, METTL14” value (shortened to “% reduction … 1.0 µM, METTL14”) was 27%. Besides, in experiment [2], the “% reduction in MV4-11 cells, 0.3 µM, METTL3” value (“% reduction … 0.3 µM, METTL3” for short) stood at 14% and the “% reduction in MV4-11 cells, 1.0 µM, METTL3” value (shortened to “% reduction … 1.0 µM, METTL3”) turned out to be 47%.
For `CC1(C)CCN(Cc2cc(F)c(N3CC(=O)NC4(CCN(c5cc(NCCCCCC(=O)N6CCN(c7ccc8c(c7)C(=O)N(C7CCC(=O)NC7=O)C8=O)CC6)ncn5)CC4)C3)cc2F)CC1` (stereo not drawn) [Compound 4b, 5-(4-(6-((6-(4-(4-((4,4-dimethylpiperidin-1-yl)methyl)-2,5-difluorophenyl)-2-oxo-1,4,9-triazaspiro[5.5]undecan-9-yl)pyrimidin-4-yl)amino)hexanoyl)piperazin-1-yl)-2-(2,6-dioxopiperidin-3-yl)isoindoline-1,3-dione], in that order: 36%, 58%, 45% and 56%.
On to `CC1(C)CCN(Cc2cc(F)c(N3CC(=O)NC4(CCN(c5cc(NCCCCCCC(=O)N6CCN(c7ccc8c(c7)C(=O)N(C7CCC(=O)NC7=O)C8=O)CC6)ncn5)CC4)C3)cc2F)CC1` (stereo not drawn) [Compound 4c, 5-(4-(7-((6-(4-(4-((4,4-dimethylpiperidin-1-yl)methyl)-2,5-difluorophenyl)-2-oxo-1,4,9-triazaspiro[5.5]undecan-9-yl)pyrimidin-4-yl)amino)heptanoyl)piperazin-1-yl)-2-(2,6-dioxopiperidin-3-yl)isoindoline-1,3-dione], for which, in experiment [1], the “% reduction … 0.3 µM, METTL14” value was found to be 46% and the “% reduction … 1.0 µM, METTL14” value is 61%. For the same compound, in experiment [2], the “% reduction … 0.3 µM, METTL3” value came out at 43% and the “% reduction … 1.0 µM, METTL3” value came out at 62%.
The corresponding values for `CC1(C)CCN(Cc2cc(F)c(N3CC(=O)NC4(CCN(c5cc(NCCCCCCCC(=O)N6CCN(c7ccc8c(c7)C(=O)N(C7CCC(=O)NC7=O)C8=O)CC6)ncn5)CC4)C3)cc2F)CC1` (stereo not drawn) [Compound 4d, 5-(4-(8-((6-(4-(4-((4,4-dimethylpiperidin-1-yl)methyl)-2,5-difluorophenyl)-2-oxo-1,4,9-triazaspiro[5.5]undecan-9-yl)pyrimidin-4-yl)amino)octanoyl)piperazin-1-yl)-2-(2,6-dioxopiperidin-3-yl)isoindoline-1,3-dione] are 51%, 67%, 52% and 68%.
Take `CC1(C)CCN(Cc2cc(F)c(N3CC(=O)NC4(CCN(c5cc(NCCCCCCCCC(=O)N6CCN(c7ccc8c(c7)C(=O)N(C7CCC(=O)NC7=O)C8=O)CC6)ncn5)CC4)C3)cc2F)CC1` (stereo not drawn) [Compound 4e, 5-(4-(9-((6-(4-(4-((4,4-dimethylpiperidin-1-yl)methyl)-2,5-difluorophenyl)-2-oxo-1,4,9-triazaspiro[5.5]undecan-9-yl)pyrimidin-4-yl)amino)nonanoyl)piperazin-1-yl)-2-(2,6-dioxopiperidin-3-yl)isoindoline-1,3-dione]: in experiment [1], the “% reduction … 0.3 µM, METTL14” value was 39% and the “% reduction … 1.0 µM, METTL14” value is 53%. Besides, in experiment [2], the “% reduction … 0.3 µM, METTL3” value was found to be 38% and the “% reduction … 1.0 µM, METTL3” value was 52%.
The corresponding values for `CC1(C)CCN(Cc2cc(F)c(N3CC(=O)NC4(CCN(c5cc(NCCCCCCC(=O)N6CCN(c7ccc8c(c7)CN(C7CCC(=O)NC7=O)C8=O)CC6)ncn5)CC4)C3)cc2F)CC1` (stereo not drawn) [Compound 4g, 3-(5-(4-(7-((6-(4-(4-((4,4-dimethylpiperidin-1-yl)methyl)-2,5-difluorophenyl)-2-oxo-1,4,9-triazaspiro[5.5]undecan-9-yl)pyrimidin-4-yl)amino)heptanoyl)piperazin-1-yl)-1-oxoisoindolin-2-yl)piperidine-2,6-dione] are 0%, 34%, 9% and 25%.
For `CC1(C)CCN(Cc2cc(F)c(N3CC(=O)NC4(CCN(c5cc(NCCCCCCCC(=O)N6CCN(c7ccc8c(c7)CN(C7CCC(=O)NC7=O)C8=O)CC6)ncn5)CC4)C3)cc2F)CC1` (stereo not drawn) [Compound 4h, 3-(5-(4-(8-((6-(4-(4-((4,4-dimethylpiperidin-1-yl)methyl)-2,5-difluorophenyl)-2-oxo-1,4,9-triazaspiro[5.5]undecan-9-yl)pyrimidin-4-yl)amino)octanoyl)piperazin-1-yl)-1-oxoisoindolin-2-yl)piperidine-2,6-dione], in that order: 40%, 64%, 46% and 69%.
For `CC1(C)CCN(Cc2cc(F)c(N3CC(=O)NC4(CCN(c5cc(NCCCCCCCCC(=O)N6CCN(c7ccc8c(c7)CN(C7CCC(=O)NC7=O)C8=O)CC6)ncn5)CC4)C3)cc2F)CC1` (stereo not drawn) [Compound 4i, 3-(5-(4-(9-((6-(4-(4-((4,4-dimethylpiperidin-1-yl)methyl)-2,5-difluorophenyl)-2-oxo-1,4,9-triazaspiro[5.5]undecan-9-yl)pyrimidin-4-yl)amino)nonanoyl)piperazin-1-yl)-1-oxoisoindolin-2-yl)piperidine-2,6-dione], in that order: 54%, 72%, 52% and 73%.
Consider `CN1C(=O)CCC(N2Cc3cc(N4CCN(C(=O)CCCCCCCCCNc5cc(N6CCC7(CC6)CN(c6cc(F)c(CN8CCC(C)(C)CC8)cc6F)CC(=O)N7)ncn5)CC4)ccc3C2=O)C1=O` (stereo not drawn) [Compound 4k, 3-(5-(4-(10-((6-(4-(4-((4,4-dimethylpiperidin-1-yl)methyl)-2,5-difluorophenyl)-2-oxo-1,4,9-triazaspiro[5.5]undecan-9-yl)pyrimidin-4-yl)amino)decanoyl)piperazin-1-yl)-1-oxoisoindolin-2-yl)-1-methylpiperidine-2,6-dione], for which, in experiment [1] (1 µM, Fig. 4A right), the “degradation of METTL14 at 1 µM (in words)” value is “not degraded”. Besides, in experiment [1] (Table 1 screening), the “degradation of METTL14 (in words)” value is on record as “did not induce degradation”. The “degradation of METTL3 at 1 µM (in words)” value in experiment [2] (1 µM, Fig. 4A right) is “not degraded”. In experiment [2] (Table 1 screening), the “degradation of METTL3 (in words)” value was “did not induce degradation”.
As to `CNc1cc(N2CCC3(CC2)CN(c2cc(F)c(CN4CCC(C)(C(=O)NCCCCNc5cccc6c5C(=O)N(C5CCC(=O)NC5=O)C6=O)CC4)cc2F)CC(=O)N3)ncn1` (stereo not drawn) [Compound 5a, 1-(2,5-difluoro-4-(9-(6-(methylamino)pyrimidin-4-yl)-2-oxo-1,4,9-triazaspiro[5.5]undecan-4-yl)benzyl)-N-(4-((2-(2,6-dioxopiperidin-3-yl)-1,3-dioxoisoindolin-4-yl)amino)butyl)-4-methylpiperidine-4-carboxamide], in experiment [1], the “% degradation in MV4-11 cells, 0.3 µM, METTL14” value was 8% and the “% degradation in MV4-11 cells, 1.0 µM, METTL14” value came out at 21%. Further, in experiment [2], the “% degradation in MV4-11 cells, 0.3 µM, METTL3” value is given as 33% and the “% degradation in MV4-11 cells, 1.0 µM, METTL3” value was found to be 52%.
Turning to `CNc1cc(N2CCC3(CC2)CN(c2cc(F)c(CN4CCC(C)(C(=O)NCCCCCCNc5cccc6c5C(=O)N(C5CCC(=O)NC5=O)C6=O)CC4)cc2F)CC(=O)N3)ncn1` (stereo not drawn) [Compound 5b, 1-(2,5-difluoro-4-(9-(6-(methylamino)pyrimidin-4-yl)-2-oxo-1,4,9-triazaspiro[5.5]undecan-4-yl)benzyl)-N-(6-((2-(2,6-dioxopiperidin-3-yl)-1,3-dioxoisoindolin-4-yl)amino)hexyl)-4-methylpiperidine-4-carboxamide], in experiment [1], the “% degradation in MV4-11 cells, 0.3 µM, METTL14” value was determined as 20% and the “% degradation in MV4-11 cells, 1.0 µM, METTL14” value is 21%. Besides, in experiment [2], the “% degradation in MV4-11 cells, 0.3 µM, METTL3” value is recorded as 55% and the “% degradation in MV4-11 cells, 1.0 µM, METTL3” value turned out to be 56%.
For `CNc1cc(N2CCC3(CC2)CN(c2cc(F)c(CN4CCC(C)(C(=O)NCCCCCCCCNc5cccc6c5C(=O)N(C5CCC(=O)NC5=O)C6=O)CC4)cc2F)CC(=O)N3)ncn1` (stereo not drawn) [Compound 5c, 1-(2,5-difluoro-4-(9-(6-(methylamino)pyrimidin-4-yl)-2-oxo-1,4,9-triazaspiro[5.5]undecan-4-yl)benzyl)-N-(8-((2-(2,6-dioxopiperidin-3-yl)-1,3-dioxoisoindolin-4-yl)amino)octyl)-4-methylpiperidine-4-carboxamide], in that order: 20%, 24%, 50% and 54%.

Source of the values: paper PMC12615518, “Discovery of CRBN-recruiting PROTAC degraders of the METTL3-METTL14 complex” (Medicinal Chemistry Research, 2025).
